Measurements as given in patent US11541107B2, “Peptides and T cells for use in immunotherapeutic treatment of various cancers” (Immatics Biotechnologies GmbH, priority 2015, dated 2023).

system: HLA-A*24; assay: MHC binding assay, UV-ligand exchange with beta2m ELISA, HLA-A*24; set-up: species or system human; conditions: binding to HLA-A*24 ranged by peptide exchange yield (UV-ligand exchange, beta2m ELISA)
Text: Candidate peptides for T cell based therapies according to the present invention were further tested for their MHC binding capacity (affinity). The individual peptide-MHC complexes were produced by UV-ligand exchange, where a UV-sensitive peptide is cleaved upon UV-irradiation, and exchanged with the peptide of interest as analyzed. Only peptide candidates that can effectively bind and stabilize the peptide-receptive MHC molecules prevent dissociation of the MHC complexes. To determine the yield of the exchange reaction, an ELISA was performed based on the detection of the light chain (ß2 m) of stabilized MHC complexes. The assay was performed as generally described in Rodenko et al. (Rodenko et al., 2006).
96 well MAXISorp plates (NUNC) were coated over night with 2 ug/ml streptavidin in PBS at room temperature, washed 4× and blocked for 1 h at 37° C. in 2% BSA containing blocking buffer. […] Peptide-MHC monomers of the UV-exchange reaction were diluted 100 fold in blocking buffer. Samples were incubated for 1 h at 37° C., washed four times, incubated with 2 ug/ml HRP conjugated anti-β2 m for 1h at 37° C., washed again and detected with TMB solution that is stopped with […]. Absorption was measured at 450 nm. Candidate peptides that show a high exchange yield (preferably higher than 50%, most preferred higher than 75%) are generally preferred for a generation and production of antibodies or fragments thereof, and/or T cell receptors or fragments thereof, as they show sufficient avidity to the MHC molecules and prevent dissociation of the MHC complexes.

Row | Substance | Peptide exchange
1 | 199 (SYLNHLNNL; listed as Homo sapiens) [compound 199] | +++ (50%-75% = +++)
2 | 375 (KYTDYILKI; listed as Homo sapiens) [compound 375] | +++ (50%-75% = +++)
3 | 266 (KYTDWTEFL; listed as Homo sapiens) [compound 266] | +++ (50%-75% = +++)
4 | 192 (RYSTFSEIF; listed as Homo sapiens) [compound 192] | +++ (50%-75% = +++)
5 | 257 (IFIDNSTQPLHF; listed as Homo sapiens) [compound 257] | +++ (50%-75% = +++)
6 | 276 (QYLDVLHAL; listed as Homo sapiens) [compound 276] | ++++ (>=75% = ++++)
7 | 241 (SYVKVLHHL; listed as Homo sapiens) [compound 241] | +++ (50%-75% = +++)
8 | 229 (IYQFVADSF; listed as Homo sapiens) [compound 229] | +++ (50%-75% = +++)
9 | 134 (AYIPTPIYF; listed as Homo sapiens) [compound 134] | +++ (50%-75% = +++)
10 | 149 (SYGTVSQI; listed as Homo sapiens) [compound 149] | ++++ (>=75% = ++++)
11 | 215 (SYVASFFLL; listed as Homo sapiens) [compound 215] | ++ (20%-49% = ++)
12 | 379 (VFIAQGYTL; listed as Homo sapiens) [compound 379] | ++++ (>=75% = ++++)
13 | 371 (AYSHLRYVF; listed as Homo sapiens) [compound 371] | ++ (20%-49% = ++)
14 | 268 (IFITKALQI; listed as Homo sapiens) [compound 268] | ++ (20%-49% = ++)
15 | 306 (VYPAEQPQI; listed as Homo sapiens) [compound 306] | +++ (50%-75% = +++)
16 | 360 (VFSPDGHLF; listed as Homo sapiens) [compound 360] | +++ (50%-75% = +++)
17 | 235 (VYKDSIYYI; listed as Homo sapiens) [compound 235] | +++ (50%-75% = +++)
18 | 277 (FYTFPFQQL; listed as Homo sapiens) [compound 277] | +++ (50%-75% = +++)
19 | 351 (IFHEVPLKF; listed as Homo sapiens) [compound 351] | +++ (50%-75% = +++)
20 | 182 (AYAQLGYLLF; listed as Homo sapiens) [compound 182] | ++++ (>=75% = ++++)
21 | 372 (VYVIEPHSMEF; listed as Homo sapiens) [compound 372] | +++ (50%-75% = +++)
22 | 250 (KYPDIASPTF; listed as Homo sapiens) [compound 250] | ++ (20%-49% = ++)
23 | 248 (AFPTFSVQL; listed as Homo sapiens) [compound 248] | ++++ (>=75% = ++++)
24 | 165 (EYFTPLLSGQF; listed as Homo sapiens) [compound 165] | +++ (50%-75% = +++)
25 | 228 (IYQYVADNF; listed as Homo sapiens) [compound 228] | +++ (50%-75% = +++)

Row | Substance | Peptide exchange
26 | 382 (AYLPPLQQVF; listed as Homo sapiens) [compound 382] | +++ (50%-75% = +++)
27 | 253 (IYGFFNENF; listed as Homo sapiens) [compound 253] | +++ (50%-75% = +++)
28 | 176 (FYINGQYQF; listed as Homo sapiens) [compound 176] | +++ (50%-75% = +++)
29 | 304 (EYNEVANLF; listed as Homo sapiens) [compound 304] | +++ (50%-75% = +++)
30 | 246 (KYLSVQLTL; listed as Homo sapiens) [compound 246] | ++ (20%-49% = ++)
31 | 212 (SYAPPSEDLF; listed as Homo sapiens) [compound 212] | ++ (20%-49% = ++)
32 | 197 (IFTDIFHYL; listed as Homo sapiens) [compound 197] | ++++ (>=75% = ++++)
33 | 202 (RYVEGIVSL; listed as Homo sapiens) [compound 202] | +++ (50%-75% = +++)
34 | 262 (VYSSQFETI; listed as Homo sapiens) [compound 262] | ++++ (>=75% = ++++)
35 | 191 (TYPDGTYTGRIF; listed as Homo sapiens) [compound 191] | +++ (50%-75% = +++)
36 | 313 (KYTHFIQSF; listed as Homo sapiens) [compound 313] | ++++ (>=75% = ++++)
37 | 295 (SYLVIHERI; listed as Homo sapiens) [compound 295] | +++ (50%-75% = +++)
38 | 256 (VFGKSAYLF; listed as Homo sapiens) [compound 256] | +++ (50%-75% = +++)
39 | 207 (LYSDAFKFIVF; listed as Homo sapiens) [compound 207] | +++ (50%-75% = +++)
40 | 357 (QFITSTNTF; listed as Homo sapiens) [compound 357] | ++++ (>=75% = ++++)
41 | 193 (LYLENNAQTQF; listed as Homo sapiens) [compound 193] | +++ (50%-75% = +++)
42 | 307 (GYAFTLPLF; listed as Homo sapiens) [compound 307] | +++ (50%-75% = +++)
43 | 297 (TYIDTRTVF; listed as Homo sapiens) [compound 297] | ++++ (>=75% = ++++)
44 | 254 (KYLESSATF; listed as Homo sapiens) [compound 254] | +++ (50%-75% = +++)
45 | 118 (KYLNSVQYI; listed as Homo sapiens) [compound 118] | +++ (50%-75% = +++)
46 | 317 (VFDTSIAQLF; listed as Homo sapiens) [compound 317] | +++ (50%-75% = +++)
47 | 204 (EYLSTCSKL; listed as Homo sapiens) [compound 204] | +++ (50%-75% = +++)
48 | 243 (SYLELANTL; listed as Homo sapiens) [compound 243] | +++ (50%-75% = +++)
49 | 209 (AFIETPIPLF; listed as Homo sapiens) [compound 209] | ++++ (>=75% = ++++)
50 | 294 (RFPVQGTVTF; listed as Homo sapiens) [compound 294] | +++ (50%-75% = +++)

Row | Substance | Peptide exchange
51 | 183 (PYLQDVPRI; listed as Homo sapiens) [compound 183] | +++ (50%-75% = +++)
52 | 224 (PYFFANQEF; listed as Homo sapiens) [compound 224] | +++ (50%-75% = +++)
53 | 367 (LYQDHMQYI; listed as Homo sapiens) [compound 367] | ++ (20%-49% = ++)
54 | 230 (TYGMVMVTF; listed as Homo sapiens) [compound 230] | +++ (50%-75% = +++)
55 | 125 (VFSRDFGLLVF; listed as Homo sapiens) [compound 125] | +++ (50%-75% = +++)
56 | 159 (IYEETRGVL; listed as Homo sapiens) [compound 159] | +++ (50%-75% = +++)
57 | 300 (TYPSQLPSL; listed as Homo sapiens) [compound 300] | +++ (50%-75% = +++)
58 | 144 (VFASLPGFLF; listed as Homo sapiens) [compound 144] | ++++ (>=75% = ++++)
59 | 290 (KYGDFKLLEF; listed as Homo sapiens) [compound 290] | ++++ (>=75% = ++++)
60 | 265 (SYLNEAFSF; listed as Homo sapiens) [compound 265] | ++++ (>=75% = ++++)
61 | 275 (KYGTLDVTF; listed as Homo sapiens) [compound 275] | ++++ (>=75% = ++++)
62 | 184 (IYSVGAFENF; listed as Homo sapiens) [compound 184] | ++++ (>=75% = ++++)
63 | 267 (SFLNIEKTEILF; listed as Homo sapiens) [compound 267] | ++ (20%-49% = ++)
64 | 213 (SYAPPSEDLFL; listed as Homo sapiens) [compound 213] | ++ (20%-49% = ++)
65 | 187 (AYAANVHYL; listed as Homo sapiens) [compound 187] | ++++ (>=75% = ++++)
66 | 283 (EYQEIFQQL; listed as Homo sapiens) [compound 283] | +++ (50%-75% = +++)
67 | 227 (IYRFITERF; listed as Homo sapiens) [compound 227] | +++ (50%-75% = +++)
68 | 217 (IYISNSIYF; listed as Homo sapiens) [compound 217] | ++++ (>=75% = ++++)
69 | 124 (TYKDYVDLF; listed as Homo sapiens) [compound 124] | + (<20% = +)
70 | 145 (VYALKVRTI; listed as Homo sapiens) [compound 145] | +++ (50%-75% = +++)
71 | 143 (KYIFQLNEI; listed as Homo sapiens) [compound 143] | +++ (50%-75% = +++)
72 | 315 (FYIPHVPVSF; listed as Homo sapiens) [compound 315] | +++ (50%-75% = +++)
73 | 286 (SYGTILSHI; listed as Homo sapiens) [compound 286] | ++++ (>=75% = ++++)
